Reference: patent US7294639B2, “Biaromatic ligand activators of PPARγ receptors” (Galderma Research & Development, priority 2001, dated 2007)

Experiments:
[1] = biological target: T1, chimeric Gal-PPARγ receptor (LBD) (Homo sapiens, UniProt P37231); test: Transactivation test, PPARγ agonist activity (luciferase); format: cell-based; conditions: concentration giving 50% activation relative to the reference agonist
T1 construct: chimeric Gal-PPARγ receptor (LBD); expressed in transfected cells; host or cells: HeLa cells, stably transfected
T1 sequence (P37231 238-503 limits assumed): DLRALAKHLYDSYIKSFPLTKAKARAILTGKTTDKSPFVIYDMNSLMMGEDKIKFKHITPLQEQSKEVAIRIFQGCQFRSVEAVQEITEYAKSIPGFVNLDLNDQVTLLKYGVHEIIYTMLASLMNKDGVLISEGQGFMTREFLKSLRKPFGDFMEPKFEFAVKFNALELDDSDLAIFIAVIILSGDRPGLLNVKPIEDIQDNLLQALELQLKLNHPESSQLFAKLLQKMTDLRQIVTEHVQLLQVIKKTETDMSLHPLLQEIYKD
Description: The agonist activity towards the PPARγ receptors of the compounds according to the invention may be evaluated by transactivation tests.
The capacity of the molecules to activate and/or inhibit the PPARγ receptors is evaluated from Hela cells stably transfected with the chimeric Gal-PPARγ receptor (LBD).
96-well plates are inoculated at the rate of 10000 cells/100 μl/well in DMEM 10% SDL medium and then placed for 24 hours at 37° C., 7% CO2.
To determine the PPARγ agonist activity, the cells are then treated by addition of 5 μl/well of the molecules to be tested at the final concentration of 1 μM. Cells are also treated in parallel with a reference agonist, (−)-3-{4-[2-(benzooxazol-2-ylmethylamino)ethoxy]phenyl}-2-ethoxypropionic acid, 1 μM.
After another incubation of 24 hours at 37° C., 7% CO2, a luciferase assay is carried out with the aid of the “Steady-Glo Luciferase Assay System” kit from Promega. The luminescence is counted on a Microbeta Trilux microplate reader (Wallac).
The agonist activity of the test product will be expressed as a percentage activation relative to the control agonist, the reference agonist at 1 μM.
The AC50, expressed in nM, is determined as the concentration which makes it possible to obtain 50% activation of the basal signal relative to the reference agonist.

human PPARγ receptor = biological target: T2, human PPARγ receptor (Homo sapiens, UniProt P37231); test: Binding test by competition with tritiated reference agonist (hydroxyapatite gel); conditions: hPPARγ/RXRα heterodimers from SF9 insect cells
T2 construct: made in house; host or cells: SF9 insect cells, recombinant baculovirus
T2 sequence (P19793 whole entry): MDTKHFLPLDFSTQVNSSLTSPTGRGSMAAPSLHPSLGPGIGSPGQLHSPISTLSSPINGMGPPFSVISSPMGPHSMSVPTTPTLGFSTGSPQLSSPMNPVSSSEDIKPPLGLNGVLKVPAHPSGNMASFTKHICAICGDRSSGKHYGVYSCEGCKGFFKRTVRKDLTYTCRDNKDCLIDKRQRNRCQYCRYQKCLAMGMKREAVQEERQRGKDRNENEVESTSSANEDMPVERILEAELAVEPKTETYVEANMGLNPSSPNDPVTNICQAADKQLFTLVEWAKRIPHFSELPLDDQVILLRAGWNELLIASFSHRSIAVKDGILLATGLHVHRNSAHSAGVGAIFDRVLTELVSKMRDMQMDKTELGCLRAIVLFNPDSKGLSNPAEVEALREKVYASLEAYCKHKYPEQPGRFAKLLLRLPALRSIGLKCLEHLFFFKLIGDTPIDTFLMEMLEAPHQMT
T2 sequence (P37231 whole entry): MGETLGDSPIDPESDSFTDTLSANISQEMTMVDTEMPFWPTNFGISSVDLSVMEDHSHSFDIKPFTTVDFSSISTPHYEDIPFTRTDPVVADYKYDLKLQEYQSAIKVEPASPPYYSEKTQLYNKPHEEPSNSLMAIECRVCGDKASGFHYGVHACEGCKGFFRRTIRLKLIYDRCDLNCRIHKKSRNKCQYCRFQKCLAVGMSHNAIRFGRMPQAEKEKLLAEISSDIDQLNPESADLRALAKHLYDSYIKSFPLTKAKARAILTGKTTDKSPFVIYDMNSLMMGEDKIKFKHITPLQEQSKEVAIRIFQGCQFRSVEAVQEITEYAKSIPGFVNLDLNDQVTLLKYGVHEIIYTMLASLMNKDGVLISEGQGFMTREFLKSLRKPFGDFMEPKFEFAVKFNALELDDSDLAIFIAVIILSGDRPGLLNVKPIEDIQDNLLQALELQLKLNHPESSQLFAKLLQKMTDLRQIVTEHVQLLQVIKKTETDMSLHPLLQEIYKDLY
Description: The affinity of the compounds of the invention for the human PPARγ receptor was determined in a test of binding, by competition for the attachment of a reference agonist, the following tritiated compound 5-{4-[2-(methylpyridin-2-ylamino)ethoxy]benzyl}thiazolidine-2,4-dione.
The receptors are obtained by infecting SF9 insect cells with a recombinant bacculovirus. They exist in the form of hPPARγ/RXRα heterodimers. The presence of RXRα increases the solubility and the stability of the hPPARγ receptor and, consequently, its biological activity, without as a result interfering in the determination of the binding constants.
The technique of adsorption on hydroxyapatite gel was used to separate the ligand bound to the receptor from the free ligand. The results are expressed as Kd value (nM) which represents the dissociation constant at equilibrium obtained for each compound.

Row | AC50 [1] [nM] | Kd (human PPARγ receptor) [nM] | Structure (SMILES)
1 | 55.5 |  | COC(=O)CCCCCCCCC(=O)N(C)Cc1cccc(-c2ccc(CC3SC(=O)NC3=O)cc2)c1 (centres unmarked) [Example 2, methyl 9-{[4′-(2,4-dioxothiazolidin-5-ylmethyl)biphenyl-3-ylmethyl]methylcarbamoyl}nonanoate]
2 | 13.1 | 375 | COC(=O)c1ccc(C(=O)N(C)Cc2cccc(-c3ccc(CC4SC(=O)NC4=O)cc3)c2)cc1 (centres unmarked) [Example 3, methyl N-[4′-(2,4-dioxothiazolidin-5-ylmethyl)biphenyl-3-ylmethyl]-N-methylterephthalamate]
3 | 24.2 | 250 | CN(Cc1cccc(-c2ccc(CC3SC(=O)NC3=O)cc2)c1)C(=O)CCC1CCCC1 (centres unmarked) [Example 4, 3-cyclopentyl-N-[4′-(2,4-dioxothiazolidin-5-ylmethyl)biphenyl-3-ylmethyl]-N-methylpropionamide]
4 | 23.3 | 500 | CN(Cc1cccc(-c2ccc(CC3SC(=O)NC3=O)cc2)c1)C(=O)c1cccc2ccccc12 (centres unmarked) [Example 5, N-[4′-(2,4-dioxothiazolidin-5-ylmethyl)biphenyl-3-ylmethyl]-N-methylnaphthalene-1-carboxamide]
5 | 4 | 60 | CN(Cc1cccc(-c2ccc(CC3SC(=O)NC3=O)cc2)c1)C(=O)c1ccc2ccccc2c1 (centres unmarked) [Example 6, N-[4′-(2,4-dioxothiazolidin-5-ylmethyl)biphenyl-3-ylmethyl]-N-methylnaphthalene-2-carboxamide]
6 | 63.8 |  | CN(Cc1cccc(-c2ccc(CC3SC(=O)NC3=O)cc2)c1)C(=O)COc1ccccc1 (centres unmarked) [Example 7, N-[4′-(2,4-dioxothiazolidin-5-ylmethyl)biphenyl-3-ylmethyl]-N-methyl-2-phenoxyacetamide]
7 | 307 |  | CN(Cc1cccc(-c2ccc(CC3SC(=O)NC3=O)cc2)c1)C(=O)c1cccn1C (centres unmarked) [Example 8, N-[4′-(2,4-dioxothiazolidin-5-ylmethyl)biphenyl-3-ylmethyl]-N-methyl-1-methyl-1H-pyrrole-2-carboxamide]
8 | 182 |  | CN(Cc1cccc(-c2ccc(CC3SC(=O)NC3=O)cc2)c1)C(=O)C12CC3CC(CC(C3)C1)C2 (centres unmarked) [Example 9, N-[4′-(2,4dioxothiazolidin-5-ylmethyl)biphenyl-3-ylmethyl]-N-methyladamantane-1-carboxamide]
9 | 3.3 | 60 | CN(Cc1cccc(-c2ccc(CC3SC(=O)NC3=O)cc2)c1)C(=O)c1ccc(-c2ccccc2)cc1 (centres unmarked) [Example 10, N-[4′-(2,4-dioxothiazolidin-5-ylmethyl)biphenyl-3-ylmethyl]-N-methylbiphenyl-4-carboxamide]
10 | 15.1 | 375 | CN(Cc1cccc(-c2ccc(CC3SC(=O)NC3=O)cc2)c1)C(=O)c1cc2ccccc2s1 (centres unmarked) [Example 11, N-[4′-(2,4-dioxothiazolidin-5-ylmethyl)biphenyl-3-ylmethyl]-N-methylbenzo[b]thio-phene-2-carboxamide]
11 | 3.2 | 60 | CN(Cc1cccc(-c2ccc(CC3SC(=O)NC3=O)cc2)c1)C(=O)CCCCC(=O)c1ccccc1 (centres unmarked) [Example 12, N-[4′-(2,4-dioxothiazolidin-5-ylmethyl)biphenyl-3-ylmethyl]-N-methyl-6-oxo-6-phenylhexanamide]
12 | 36.7 | 500 | CN(Cc1cccc(-c2ccc(CC3SC(=O)NC3=O)cc2)c1)C(=O)c1ccc(N(C)C)c2ccccc12 (centres unmarked) [Example 13, 4dimethylamino-N-[4′-(2,4-dioxothiazolidin-5-ylmethyl)biphenyl-3-ylmethyl]-N-methylnaphthalene-1-carboxamide]
13 | 143 |  | CN(Cc1cccc(-c2ccc(CC3SC(=O)NC3=O)cc2)c1)C(=O)c1ccc(S(C)(=O)=O)cc1 (centres unmarked) [Example 14, N-[4′-(2,4-dioxothiazolidin-5-ylmethyl)biphenyl-3-ylmethyl]-4-methanesulphonyl-N-methylbenzamide]
14 | 5 | 60 | CN(Cc1cccc(-c2ccc(CC3SC(=O)NC3=O)cc2)c1)C(=O)c1ccc(C(=O)c2ccccc2)cc1 (centres unmarked) [Example 15, N-[4′-(2,4-dioxothiazolidin-5-ylmethyl)biphenyl-3-ylmethyl]-N-methyl-4-(1-phenylmethanoyl)benzamide]
15 | 0.55 | 4 | COCCOCOc1ccc2cc(C(=O)N(C)Cc3cccc(-c4ccc(CC5SC(=O)NC5=O)cc4)c3)ccc2c1 (centres unmarked) [Example 16, 6-(2-methoxyethoxymethoxy)-N-[4′-(2,4-dioxothiazolidin-5-ylmethyl)biphenyl-3-ylmethyl]-N-methylnapthalene-2-carboxamide]
16 | 3.8 | 15 | CN(Cc1cccc(-c2ccc(CC3SC(=O)NC3=O)cc2)c1)C(=O)c1ccc2cc(O)ccc2c1 (centres unmarked) [Example 17, 6-hydroxy-N-[4′-(2,4-dioxothiazolidin-5-ylmethyl)biphenyl-3-ylmethyl]-N-methylnaphthalene-2-carboxamide]
17 | 42.5 |  | CSc1ccc(C(=O)N(C)Cc2cccc(-c3ccc(CC4SC(=O)NC4=O)cc3)c2)cc1 (centres unmarked) [Example 18, N-[4′-(2,4-dioxothiazolidine-5-ylmethyl)biphenyl-3-ylmethyl]-N-methyl-4-methylsulphanylbenzamide]
18 | 2.9 | 8 | CCO[C@@H](Cc1ccc(-c2cccc(CN(C)C(=O)c3ccc(-c4ccccc4)cc3)c2)cc1)C(=O)O [Example 19, (S)-3-(3′-{[(1-biphenyl-4-ylmethanoyl)methylamino]methyl}biphenyl-4-yl)-2-ethoxypropionic acid]
19 | 7.7 | 9.5 | CCO[C@@H](Cc1ccc(-c2cccc(CN(C)C(=O)CCCCC(=O)c3ccccc3)c2)cc1)C(=O)O [Example 20, (S)-2-ethoxy-3-(3′-{[methyl(6-oxo-6-phenylhexanoyl)amino]methyl}biphenyl-4-yl)propionic acid]
20 | 22 |  | CN(C(=O)Nc1ccc2ccccc2c1)c1cccc(-c2ccc(CC3SC(=O)NC3=O)cc2)c1 (centres unmarked) [Example 21, 1-[4′-(2,4-dioxothiazolidin-5-ylmethyl)biphenyl-3-yl]-1-methyl-3-naphthalen-2-ylurea]
21 | 4.2 |  | CN(C)c1ccc(NC(=O)N(C)c2cccc(-c3ccc(CC4SC(=O)NC4=O)cc3)c2)cc1 (centres unmarked) [Example 22, 3-(4-dimethylaminophenyl)-1-[4′-(2,4-dioxothiazolidin-5-ylmethyl)biphenyl-3-yl]-1-methylurea]
22 | 1 |  | CCO[C@@H](Cc1ccc(-c2cccc(CN(C)C(=O)c3ccc4cc(OCOCCOC)ccc4c3)c2)cc1)C(=O)O [Example 23, (S)-2-ethoxy-3-{3′-[({1-[6-(2-methoxyethoxymethoxy)naphthalen-2-yl]methanoyl}methylamino)methyl]biphenyl-4-yl}propionic acid]
